According to article PMC10693631, “A multi-reservoir extruder for time-resolved serial protein crystallography and compound screening at X-ray free-electron lasers” (Nature Communications, 2023):

Biological target: T1, Krokinobacter eikastus rhodopsin 2 (KR2) (Dokdonia eikasta, UniProt N0DKS8)
T1 construct: gene NaR; light-driven sodium pump, membrane protein crystallised in monoolein LCP; expression and purification only cited
T1 sequence (N0DKS8 1-280): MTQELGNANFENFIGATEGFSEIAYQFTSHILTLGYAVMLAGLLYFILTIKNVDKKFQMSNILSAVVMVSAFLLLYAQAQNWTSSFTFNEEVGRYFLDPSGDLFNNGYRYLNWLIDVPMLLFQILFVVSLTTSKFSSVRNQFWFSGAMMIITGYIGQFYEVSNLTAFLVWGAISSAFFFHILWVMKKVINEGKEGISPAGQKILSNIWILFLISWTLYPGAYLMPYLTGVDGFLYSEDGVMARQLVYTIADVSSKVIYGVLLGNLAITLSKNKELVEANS
Test: time-resolved serial femtosecond crystallography (XFEL, room temperature), dark state
Format: binding
Details: covalent, light state 1 us after 575 nm pulse deposited as 8CL8, crystals shifted to pH 9.0, 150 mM NaCl

CC1=C(/C=C/C(C)=C/C=C/C(C)=C/C=O)C(C)(C)CCC1 [retinal]
time-resolved serial femtosecond crystallography (XFEL, room temperature), dark: examining structural changes after photoactivation of its retinal chromophore
